Measurements reported in paper PMC8777265, “The Environmental Pollutant Bromophenols Interfere With Sulfotransferase That Mediates Endocrine Hormones” (Frontiers in Endocrinology, 2022).

Experiments:
Format in all cases: biochemical
SULT1A1 [1] = target: T1, SULT1A1 (Homo sapiens, UniProt P50225); assay: PNP sulfation, UPLC-UV, […] inhibitor
T1 construct: recombinant human enzyme, commercial (BD Gentest)

SULT1B1 [2] = target: T2, SULT1B1 (Homo sapiens, UniProt O43704); assay: PNP sulfation, UPLC-UV, […] inhibitor
T2 construct: recombinant human enzyme, commercial (BD Gentest)

SULT1A3 [3] = target: T3, SULT1A3 (Homo sapiens, UniProt P0DMM9); assay: PNP sulfation, UPLC-UV, […] inhibitor
T3 construct: recombinant human enzyme, commercial (BD Gentest)

SULT1E1 = target: T4, SULT1E1 (Homo sapiens, UniProt P49888); assay: PNP sulfation, UPLC-UV, […] inhibitor
T4 construct: recombinant human enzyme, commercial (BD Gentest)
T4 sequence (P49888 1-294): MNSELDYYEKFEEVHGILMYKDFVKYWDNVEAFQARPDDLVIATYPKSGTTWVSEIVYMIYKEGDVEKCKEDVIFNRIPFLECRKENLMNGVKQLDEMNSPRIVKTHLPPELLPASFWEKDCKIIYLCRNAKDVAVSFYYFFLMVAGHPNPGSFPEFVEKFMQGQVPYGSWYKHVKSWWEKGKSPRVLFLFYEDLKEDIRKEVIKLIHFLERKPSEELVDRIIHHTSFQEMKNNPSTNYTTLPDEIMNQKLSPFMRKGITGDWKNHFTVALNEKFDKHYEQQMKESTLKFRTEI

SULT1A3 [4] = target: T3, SULT1A3; assay: PNP sulfation, UPLC-UV, Lineweaver-Burk with slope replot
SULT1B1 [5] = target: T2, SULT1B1; assay: PNP sulfation, UPLC-UV, single-concentration screen; conditions: 25 µM PNP, 40 µM PAPS, 5 mM MgCl2, 100 mM Tris-HCl pH 7.4, 37 °C
SULT1A1 [6] = target: T1, SULT1A1; assay: as above; conditions: 40 µM PNP, 40 µM PAPS, 5 mM MgCl2, 100 mM Tris-HCl pH 7.4, 37 °C

T2 sequence (O43704 whole entry): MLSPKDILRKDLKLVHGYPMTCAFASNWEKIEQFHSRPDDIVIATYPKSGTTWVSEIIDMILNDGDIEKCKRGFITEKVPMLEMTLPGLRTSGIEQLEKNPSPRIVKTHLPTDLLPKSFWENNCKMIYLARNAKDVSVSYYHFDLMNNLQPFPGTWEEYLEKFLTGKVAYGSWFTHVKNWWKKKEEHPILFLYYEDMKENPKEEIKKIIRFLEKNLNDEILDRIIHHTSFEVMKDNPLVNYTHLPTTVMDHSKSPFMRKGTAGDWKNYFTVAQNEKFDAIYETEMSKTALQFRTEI
T3 sequence (P0DMM9 whole entry): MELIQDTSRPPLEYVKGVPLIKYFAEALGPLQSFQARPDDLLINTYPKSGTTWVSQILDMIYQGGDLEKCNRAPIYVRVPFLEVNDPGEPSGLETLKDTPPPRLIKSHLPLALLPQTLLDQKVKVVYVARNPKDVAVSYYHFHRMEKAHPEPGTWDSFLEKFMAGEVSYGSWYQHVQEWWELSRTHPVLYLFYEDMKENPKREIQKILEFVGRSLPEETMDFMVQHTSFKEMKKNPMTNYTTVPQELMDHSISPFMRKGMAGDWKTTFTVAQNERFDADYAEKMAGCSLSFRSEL
T1 sequence (P50225 whole entry): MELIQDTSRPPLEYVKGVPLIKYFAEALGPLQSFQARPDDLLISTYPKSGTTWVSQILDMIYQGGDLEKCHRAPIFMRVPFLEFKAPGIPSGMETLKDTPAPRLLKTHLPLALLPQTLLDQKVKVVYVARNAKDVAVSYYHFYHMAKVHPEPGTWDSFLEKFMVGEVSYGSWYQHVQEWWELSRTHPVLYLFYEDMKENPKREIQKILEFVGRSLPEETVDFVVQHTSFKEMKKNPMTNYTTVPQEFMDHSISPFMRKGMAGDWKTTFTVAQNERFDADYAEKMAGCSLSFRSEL

Compound | IC50 (SULT1A1 [1]) | IC50 (SULT1B1 [2]) | IC50 (SULT1A3 [3]) | IC50 (SULT1E1) | Ki (SULT1A3 [4]) | % inhibition at 100 μM (SULT1B1 [5]) | % inhibition at 100 μM (SULT1A1 [6])
Oc1cc(Br)ccc1Br [2,5-DBP] | 1.24 µM | 5.42 µM | 12.9 µM | – | – | – | –
Oc1ccccc1Br [2-BP] | 1.03 µM | 1.07 µM | 8.88 µM | 25.9 µM | – | – | –
Oc1c(Br)cc(Br)cc1Br [2,4,6-TBP] | 1.02 µM | 1.06 µM | 4.02 µM | 6.06 µM | 16.3 µM | – | –
Oc1ccc(Br)cc1Br [2,4-DBP] | 1.03 µM | 4.22 µM | 25.5 µM | 3.24 µM | – | – | –
Oc1cccc(Br)c1 [3-BP] | – | – | – | – | – | 3-BP and 4-BP only showed strong inhibition ability towards SULT1A1 and SULT1B1 | 3-BP and 4-BP only showed strong inhibition ability towards SULT1A1 and SULT1B1
